Test results taken from patent publication US7211685B2, “Calcium receptor antagonists” (Japan Tobacco Inc., priority 2000, dated 2007).

Assays:
[1] = OVX rat; cited from earlier work
PTH secretion = PTH secretion promoting action, oral administration to male SD rats, serum PTH by rat PTH (1-84) ELISA; assay type: in vivo; conditions: 30 mg/kg, rat
Procedure: PTH Secretion Promoting Action
The test compound was orally administered to 6 to 9-week-old male SD rats (Charles River Japan, Inc.) fasted for 20 hr, using a solvent (5% ethanol, 0.5% aqueous methyl cellulose solution) at a dose of 30 mg/5 ml/kg and 100 mg/5 ml/kg. A solvent alone was orally administered to the control group at a dose of 5 ml/kg. The blood was drawn from the tail vein immediately before and 0.5, 1, 2, 4, 6 hr after the administration of the test compound, and sera were obtained. The serum PTH concentration was measured using rat PTH (1-84) ELISA kit (Nohon Medi-Physics). The results of the serum PTH concentration before and 30 min and 4 hr after the administration of the test compound are shown in Table 24, and the results of the serum PTH concentration before and 30 min and 2 hr after the administration of the test compound of the 30 mg/5 ml/kg administration group are shown in Table 25.
In FIG. 1, FIG. 2 and FIG. 3, the time-course changes of the serum PTH concentration at the dose (30 mg/kg) of Example 22, Example 23 and Example 24 are shown.

PTH release = conditions: OVX rat, cited from earlier work
[2] = tested on: osteoblast and osteoclast; conditions: cited from earlier work

## CC(C)(Cc1ccc2ccccc2c1)NC[C@@H](O)COc1cccc(Cl)c1C#N [NPS-2143]
[1]
  concentration in blood of NPS-2143 after 24 hr: not more than 10 ng/ml
  concentration in blood of NPS-2143 at 8 hr after administration: above 100 ng/ml
PTH secretion
  PTH secretion promoting action, time course (FIG. 5): sustained secretion promoting action
PTH release; NPS-2143 100 μmol/kg
  PTH concentration in blood after 4 hr: about 140 pg/ml
  PTH concentration in blood at 30 min: about 115 pg/ml
PTH release; oral administration
  effect on bone: no bone increase or decrease was found
[2]
  direct effect on osteoblast and osteoclast in vitro: no direct effect
